Assay results: publication PMC13489962, “Small-molecule modulation of β-arrestins” (Nature, 2026)

Experiments:
βARR1–JNK3 interaction = target: T1, βARR1–JNK3 interaction (Rattus norvegicus, UniProt P29066); assay: Flag pulldown of βARR1 with JNK3; type: biochemical; conditions: 20-fold molar excess of compound, 30 min
T1 construct: made in house
Protocol: To assess the effects of the compounds on βARR1 interactions with its effector proteins SRC and JNK3, βARR1–Flag (5 μM) was incubated with a 20-fold molar excess of Cmpd-5, Cmpd-46 or Cmpd-64 for 30 min at room temperature. Subsequently, 15 μM of SRC or JNK3 was added. To evaluate compound effects on βARR1–ERK2 binding, βARR1 (15 μM) was pre-incubated with a 20-fold molar excess of Cmpd-5, Cmpd-46 or Cmpd-64 for 30 min at room temperature, followed by the addition of 5 μM ERK2–Flag. Afterward, 50 μl of anti-Flag M2 affinity gel (Millipore Sigma) was added, and the mixtures were incubated for 1 h at room temperature with rotation. The resin was then collected by centrifugation and washed 3 times with 1 ml of 20 mM HEPES (pH 7.5), 100 mM NaCl. Bound proteins were eluted using 0.2 mg ml^−1 Flag peptide in 20 mM HEPES (pH 7.5), 100 mM NaCl, mixed with Laemmli sample buffer (Bio-Rad), and analysed by SDS–PAGE followed by western blotting. Detection was performed using monoclonal anti-Flag M2-peroxidase (HRP) antibody (1:2,000, Sigma-Aldrich A8592, RRID:AB_439702) for βARR1–Flag and ERK2–Flag; polyclonal A1CT antibody[76] (1:5,000) for βARR1; anti-SRC monoclonal antibody (1:10,000, EMD Millipore 05-184, RRID:AB_2302631) for SRC; and anti-JNK3 monoclonal antibody (1:5,000, Cell Signaling 2305, RRID:AB_2281744) for JNK3. Western blot images were taken using Bio-Rad ChemiDoc system and the densitometry analysis was performed by ImageLab v6.1 and statistical differences were determined by one-way ANOVA with Dunnett’s post hoc test in GraphPad Prism software.

M2R–Gi = assay: TRUPATH BRET2 Gα–Gβγ dissociation, M2R–Gi; type: cell-based, human; conditions: 50 μM, 15 min; ACh; βarr1/2 KO cells
Protocol: TRUPATH assays[73] were performed in HEK293 βARR1/2-knockout cells transiently transfected using FuGENE4K with a total of 4 μg per 15 cm dish plasmid DNA, including pcDNA3.1 constructs encoding human GPCRs (β2AR, AT1R, M2R or NTSR1), Gα–RLuc8, Gβ3 and Gγ9–GFP2 at a 1:1:1:1 ratio. TRUPATH components were obtained from B. Roth via Addgene (1000000163). Twenty-four hours after transfection, cells were replated into poly-D-lysine-coated 96-well white, clear-bottom plates at 20,000–30,000 cells per well in phenol red-free DMEM supplemented with 2% FBS. BRET signals were acquired 48 h after transfection. On the day of the assay, cells were washed and incubated in HBSS containing 20 mM HEPES (pH 7.4). Modulators were applied at 50 μM for 15 min, followed by addition of Prolume Purple substrate (Nanolight Technologies). Cells were then stimulated with increasing concentrations of agonist (angiotensin II, neurotensin, isoproterenol or acetylcholine). BRET2 was recorded in kinetic mode for 30 min using a CLARIOstar Plus plate reader (480 nm/510 nm), and peak signals were used for quantification. ΔNet BRET ratios were calculated by subtracting the BRET ratio of the vehicle-treated control from each condition, agonist alone or agonist plus modulator. […]

D2R–Gi = assay: TRUPATH BRET2 Gα–Gβγ dissociation, D2R–Gi; type: cell-based; conditions: 50 μM; quinpirole; βarr1/2 KO cells
[1] = tested on: βARR2 conformation (AT1R); assay: Intramolecular FlAsH-BRET βARR2 conformational sensors; type: cell-based, human; conditions: 50 μM, 15 min; AngII 10 μM
Protocol: Intramolecular FlAsH-BRET assays[72] were performed in HEK293 βARR1/2-knockout cells transiently transfected using FuGENE4K with 2 μg total DNA per 15 cm dish. Cells were transfected with 1.5 μg of pcDNA3.1 encoding human AT1R and 0.4 μg of a plasmid encoding the indicated RLuc–β-arrestin2–FlAsH biosensors. Twenty-four hours after transfection, cells were replated into poly-D-lysine-coated 96-well white, clear-bottom plates at 100,000 cells per well in MEM supplemented with 10% FBS. Forty-eight hours after transfection, cells were labelled with FlAsH-EDT2 (FlAsH II In-Cell Tetracysteine Detection Kit, Thermo Fisher) at a final concentration of 2.5 μM for 30 min at room temperature. Following labelling, cells were washed twice with BAL wash buffer (250 μM 2,3-dimercapto-1-propanol in HBSS), then equilibrated in HBSS supplemented with 20 mM HEPES (pH 7.4). Modulators were applied at 50 μM for 15 min, followed by addition of Prolume Purple substrate (Nanolight Technologies). Cells were then stimulated with 10 μM angiotensin II. BRET signals were recorded using a CLARIOstar Plus plate reader in kinetic mode (480 nm donor, 530 nm acceptor) for 30 min, and peak values were used for quantification. ΔNet BRET was calculated by subtracting baseline values from each condition, including agonist alone, modulator alone, or agonist plus modulator.

T1 sequence (P29066 whole entry): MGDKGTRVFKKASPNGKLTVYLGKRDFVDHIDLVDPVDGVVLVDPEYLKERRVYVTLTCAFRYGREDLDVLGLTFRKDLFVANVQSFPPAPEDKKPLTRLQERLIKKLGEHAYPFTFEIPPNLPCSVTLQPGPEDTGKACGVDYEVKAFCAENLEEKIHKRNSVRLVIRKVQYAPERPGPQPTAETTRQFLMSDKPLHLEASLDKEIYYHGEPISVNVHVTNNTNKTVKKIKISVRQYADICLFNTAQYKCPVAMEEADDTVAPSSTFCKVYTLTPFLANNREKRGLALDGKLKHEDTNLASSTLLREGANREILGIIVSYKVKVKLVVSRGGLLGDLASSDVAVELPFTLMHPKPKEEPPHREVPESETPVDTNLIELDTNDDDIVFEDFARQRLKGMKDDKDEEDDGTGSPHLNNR
T1 sequence (P53779 whole entry partner): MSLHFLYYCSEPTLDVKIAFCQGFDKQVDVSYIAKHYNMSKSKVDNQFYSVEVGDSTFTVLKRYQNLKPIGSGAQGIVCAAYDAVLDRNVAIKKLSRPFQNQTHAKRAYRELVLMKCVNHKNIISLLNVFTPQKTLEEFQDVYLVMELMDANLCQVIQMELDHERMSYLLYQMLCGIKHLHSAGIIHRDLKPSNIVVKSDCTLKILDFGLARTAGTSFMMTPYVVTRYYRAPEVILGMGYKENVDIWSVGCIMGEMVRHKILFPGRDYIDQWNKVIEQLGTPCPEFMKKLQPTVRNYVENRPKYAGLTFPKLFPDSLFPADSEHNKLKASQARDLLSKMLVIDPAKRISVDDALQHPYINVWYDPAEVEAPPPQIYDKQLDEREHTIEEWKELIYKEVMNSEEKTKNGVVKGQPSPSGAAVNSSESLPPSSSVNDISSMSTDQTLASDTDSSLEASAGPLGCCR

Row | Compound | effect on βARR1 binding to JNK3 (βARR1–JNK3 interaction) | mean fractional decrease vs DMSO in maximal Gα–Gβγ dissociation, M2R (M2R–Gi) | mean fractional decrease vs DMSO in maximal Gα–Gβγ dissociation, D2R (D2R–Gi) | effect on AngII-induced active βarr2 FlAsH-BRET signature [1]
1 | C=C1C(=O)C2=CC1CCC(=O)C1(C)CCC(OCC)C(C)(C)C1CC2O (centres unmarked) [Cmpd-46, (Z)-3-ethoxy-6-hydroxy-4,4,13a-trimethyl-9-methylene-1,2,3,4,4a,5,6,9,10,11,12,13a-dodecahydro-7,10-(metheno)benzo[11]annulene-8,13-dione] | minimal change | −0.32 | −0.18 | –
2 | C=C1C(=O)OC2CC3(C)OC3CCC(C)=CC(OC(C)=O)C12 (centres unmarked) [Cmpd-64, (Z)-4,10a-dimethyl-7-methylene-8-oxo-1a,2,3,6,6a,7,8,9a,10,10a decahydrooxireno[2’,3’:8,9]cyclodeca[1,2-b]furan-6-yl acetate] | minimal change | −0.38 | −0.27 | –
3 | C=C1C(=O)[C@]23[C@H](O)[C@H]1CC[C@H]2[C@@]12CO[C@]3(O)[C@@H](O)[C@@H]1C(C)(C)CC[C@@H]2O [Cmpd-5, (1S,4aR,5S,6S,6aR,9S,11aS,11bS,14R)-1,5,6,14-tetrahydroxy−4,4-dimethyl-8-methylenedecahydro-1H-6,11b-(epoxymethano)-6a,9-methanocyclohepta[a]naphthalen-7(8H)-one] | minimal change | – | – | largely attenuates this active signature
